Test system: NLRC4 inflammasome
Assay: NLRC4 inflammasome activation induced by S.typhi in BMDMs
Assay type: cell-based, mouse
Conditions: F14 10 μM, LPS-primed BMDMs
Source text: The NLRP3 inflammasome can be activated by various stimuli, such as microbial toxins and urate crystals. This process plays a central role in the pathogenesis of many inflammatory diseases. To assess whether F14 exerts a broad-spectrum inhibitory effect on NLRP3 inflammasome activation, we used three different activators—ATP, MSU, and Nigericin to stimulate BMDMs. […] Among the inflammasome family, NLRC4 and AIM2 are also protein complexes involved in the innate immune response, playing key roles in inflammatory regulation during infection and tissue damage. Poly (dA:dT) was used to induce AIM2 activation, while S.typhi was employed to stimulate NLRC4 activation.
The LPS concentration was 200 ng/mL to pretreat BMDM cells for 3 h, then F14 (10 μM) was added to treat the cells for 30 min, and then each inducer—Nigericin (10 μM, 0.5 h), ATP (2.5 mM, 0.5 h), MSU (150 μg/mL, 4 h), S.typhi (4 h), and poly-(dA:dT) (0.5 μg/mL, 4 h)—were added for stimulation. (A) F14 has a broad-spectrum inhibitory effect on NLRP3 inflammasome activation. (B) F14 has a specific inhibitory effect on NLRP3 inflammasome activation. Data are presented as the mean ± SEM (n = 3). *** p < 0.001 vs. the model group. NS, not significant.

Cc1ccc(C(=O)/C=C/c2cccc(O)c2)c(C)c1 [Compound F14, (E)-1-(2,4-dimethylphenyl)-3-(3-hydroxyphenyl)propyl-2-en-1-one]
activation of NLRC4 inflammasome: no effect
